Measurements published in US7988958B2, “Enterococcus and Streptococcus strains and bacteriocins” (The United States of America as represented by the …, priority 2005, dated 2011).

Key:
Assay in all cases: MIC of purified bacteriocins and antibiotic by Spot Test
Type in all cases: cell-based
Pseudomonas aeruginosa = conditions: P. aeruginosa; 24 hours at 37° C., aerobic
Method: (§1) The minimal inhibiting concentrations (MICs) of bacteriocins 760 and 50-52 and Methicillin were determined by Spot Test. Various concentrations of purified bacteriocins (μg/ml) in a volume of 10 μl was added to cultures of Staphylococcus aureus, Staphylococcus epidermidis, Pseudomonas aeruginosa, and Helicobacter pylori. The cultures were incubated for about 24 hours at about 37° C. under aerobic conditions for all but Helicobacter pylori which was incubated under microaerobic conditions.

Staphylococcus aureus = conditions: S. aureus; 24 hours at 37° C., aerobic
Method: as §1

[1] = system: Staphylococcus epidermidis; conditions: S. epidermidis; 24 hours at 37° C., aerobic
Method: as §1

Helicobacter pylori = conditions: H. pylori; 24 hours at 37° C., microaerobic
Method: as §1

MIC of purified Bacteriocins and Antibiotic (Pseudomonas aeruginosa): 78.4 µg/mL
MIC of purified Bacteriocins and Antibiotic (Staphylococcus aureus): 52.5 µg/mL
MIC of purified Bacteriocins and Antibiotic [1]: 64.8 µg/mL
MIC of purified Bacteriocins and Antibiotic (Helicobacter pylori): 93.8 µg/mL
SMILES: COc1cccc(OC)c1C(=O)N[C@@H]1C(=O)N2[C@@H]1SC(C)(C)[C@@H]2C(=O)O [Methicillin, reference compound]
